Data: paper PMC9929129, “Towards Translation of PqsR Inverse Agonists: From In Vitro Efficacy Optimization to In Vivo Proof‐of‐Principle” (Advanced Science, 2023)
Like-named read-outs stand apart in the source and are kept apart here.

Tests used:
PA14 biofilm = assay: Biofilm-formation assay (Calgary biofilm device); type: cell-based, Pseudomonas aeruginosa; settings: 24 present from the beginning or added 8 h after onset of biofilm growth; CFU after 48 h
Experimental: MA, USA) instrument parameters: Spray voltage 3500 V, vaporizer temperature 370 °C, sheath gas pressure 35 psi, aux gas pressure 30 psi, capillary temperature 270 °C, collision pressure 1.5 mTorr, positive ionization mode. For AQ analyte reaction monitoring parameters please see Table S1.
Table S1. LC-ESI-MS/MS reaction monitoring parameters of AQ analytes in positive ionization mode. precursor product ion collision tube lens retention ion m/z m/z energy (V) offset (V) time (min)
1.2.4 Biofilm-formation assay
Biofilm formation was determined using a MBEC Assay® Biofilm Inoculator with 96-well base (Innvotech, Edmonton, CA). An overnight culture of PA14 was centrifuged (10 min, 5000 x g). The supernatant including extracellular polymers was removed and the pellet washed with 10 mL of LB medium. Centrifugation was repeated, the supernatant discarded, and the pellet resuspended in 5 mL of LB. OD was adjusted to 0.2. The bacteria were further diluted in LB medium, followed by addition of the target compound or DMSO control to give OD 0.1 and 1% DMSO. 150 µL were added to each well of the 96-well plate. The outer wells were used as blanks containing 150 µL of 1% DMSO in LB. Six replicates per sample were distributed evenly across the plate, with every row containing one replicate of each sample. […]
Statistical outliers were determined using the Nalimov test, applying a 95% cut-off. […]

V1a (h) = biological target: T1, V1a (h) (Homo sapiens, UniProt P37288); assay: Cerep panel binding assay; settings: agonist radioligand
T1 construct: purchased Eurofins Pharma Discovery (Cerep) SafetyScreen44 Panel, ITEM P270
Experimental: 1.4 Safety Pharmacology of Compound 24
1.4.1 Cerep panel (Eurofins)
Compound 24 was further profiled for its off-target interactions against a panel of 44 targets. The
screening was done by Eurofins Pharma Discovery within the SafetyScreen44 Panel (Cerep, ITEM
P270). In all assays binding/functional inhibition was determined at 10 µM.
Table S6. […]
V1a (h) (agonist radioligand) 7.6

[1] = tested on: Pseudomonas aeruginosa strain PA14; assay: Alkylquinolone quantification, strain PA14; type: cell-based
Experimental: 1.2.2 Pyocyanin assay in Pseudomonas aeruginosa
Inhibition of pyocyanin biosynthesis of compounds was measured spectrophotometrically as previously described.[2] Pseudomonas aeruginosa PA14 was grown in rich medium for 16 h under agitation with and without compound. Pyocyanin was extracted from cultures with chloroform, then re-extracted with 0.2 M HCl and quantified photometrically (520 nm). IC50 values were determined from dose-response curves of compounds using at least six different concentrations and fitting with non-linear regression analysis (OriginPro 2017–2020, Originlab Corporation).
1.2.3 Alkylquinolone quantification
Inhibition of alkylquinolone (AQ) signal molecule biosynthesis of compound 24 was analyzed via LC-ESI-MS/MS. Extracellular concentrations of the AQs PQS (2-heptyl-3-hydroxy-4-quinolone), HHQ (2-heptyl-4-quinolone), HQNO (N-oxo-2-heptyl-4-Hydroxyquinoline), 2-AA (2-aminoacetophenone) were measured from supernatants of cultures incubated with or without compound for 17 h. 5,6,7,8-Tetradeutero-2-heptyl-4(1H)-quinolone (HHQ-d4) was added as internal standard before sample preparation. IC50 values were calculated according to the procedure of the pyocyanin assay (see above). LC-ESI-MS/MS conditions were as follows: Dionex Ultimate 3000 HPLC instrument parameters: Zorbax Eclipse XDB 80 Å C18 5 µm 4.6 x 50 mm (Agilent, Santa Clara, CA, USA); eluent A – H2O with 0.1% trifluoroacetic acid (TFA), 0.1% pentafluoropropionic acid (PFPA), 0.1% heptafluorobutyric acid (HFBA); eluent B – acetonitrile with 0.1% TFA, 0.1% PFPA, 0.1% HFBA; isocratic 50% A; flow – 0.7 mL/min. TSQ Quantum Access Max (Thermo Fisher Scientific, Waltham, MA, USA) instrument parameters: Spray voltage 3500 V, vaporizer temperature 370 °C, sheath gas pressure 35 psi, aux gas pressure 30 psi, capillary temperature 270 °C, collision pressure 1.5 mTorr, positive ionization mode. For AQ analyte reaction monitoring parameters please see Table S1.
Table S1. LC-ESI-MS/MS reaction monitoring parameters of AQ analytes in positive ionization mode. […]
Six replicates per sample were distributed evenly across the plate, with every row containing one replicate of each sample. The well plate was covered with the peg lid. One layer of parafilm was wrapped around the biofilm inoculator. The inoculator was incubated at 37 °C, static for 24 h with a beaker of H2O ensuring humidity. Alternatively, the plate was incubated using only LB for 8 h prior to addition of DMSO/24 to give 1% DMSO, followed by another 16 h incubation under the same […]
After 24 h, the plate was removed from the incubator and the peg lid was transferred to a fresh 96 well plate (Nunc U bottom, Thermo Fisher, Dreieich, Germany) containing the respective target

T1 sequence (P37288 whole entry): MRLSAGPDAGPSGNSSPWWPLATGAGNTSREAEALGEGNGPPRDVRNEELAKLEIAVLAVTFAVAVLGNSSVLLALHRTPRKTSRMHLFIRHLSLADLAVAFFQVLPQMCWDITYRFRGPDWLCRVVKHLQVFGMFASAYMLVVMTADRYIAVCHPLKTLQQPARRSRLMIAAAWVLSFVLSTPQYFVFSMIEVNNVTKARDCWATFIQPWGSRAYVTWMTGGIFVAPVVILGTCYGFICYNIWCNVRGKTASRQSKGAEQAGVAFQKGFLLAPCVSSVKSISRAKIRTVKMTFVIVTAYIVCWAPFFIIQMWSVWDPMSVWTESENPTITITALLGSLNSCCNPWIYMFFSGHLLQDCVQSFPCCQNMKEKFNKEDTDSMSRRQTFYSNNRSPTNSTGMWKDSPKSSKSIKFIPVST

SMILES: CC(C)Oc1ccc(-c2ncc(CNc3ccnc(C(F)(F)F)c3)cn2)cc1Cl [Compound 24]
- PA14 biofilm formation (CFU) compared to DMSO control (PA14 biofilm): significantly attenuates
- inhibition at 10 µM (V1a (h)): 7.6%
- IC50 ([1]; PA14, 17 h, read-out: IC50 PA14, 2‐AA biosynthesis): 386 nM
- IC50 ([1]; PA14, 17 h, read-out: IC50 PA14, HHQ biosynthesis): 233 nM
- IC50 ([1]; PA14, 17 h, read-out: IC50 PA14, HQNO biosynthesis): 347 nM
- IC50 ([1]; PA14, 17 h, read-out: IC50 PA14, PQS biosynthesis): 349 nM
- IC50 ([1]; PA14, read-out: IC50 values for individual AQs): 160 to 453 nM
